Measurements published in article PMC8776894 (Communications Biology, 2022).

What was measured:
MCAO mice = test: Mortality after MCAO; type: in vivo, mouse; settings: vehicle 29.06, P >0.05 vs vehicle
Description: Experimental ischemic stroke was performed by MCAO using published protocols[63],[64] with some modifications. In detail, mice (8–10 weeks)[65] were deeply anesthetized with 1.5% isoflurane in a mixture of 30% O2 and 69% N2O. Conditions of the blood gas were maintained at constant levels throughout the operation (PO2, 120 ± 10 mmHg; PCO2, 35 ± 3 mmHg) and temperatures in the temporal muscle and rectum were also maintained at 37.5 ± 0.2°C and 37.0 ± 0.1°C, respectively. Body temperature was kept in the normal range (36.5–37.5 °C) with a heating lamp and a heating pad during surgery. All surgical supplies and instruments were sterilized. The […] (CCA) and the external carotid artery were then gently separated. The blood flow of CCA was blocked with a sterile nylon suture (No.: MSMC21B120PK50, Ruiwode Bio-technology Co., Ltd., China), which was inserted into middle cerebral artery from CCA. The mice in the sham group underwent the same surgery without a nylon suture. After 60 min, the suture was removed and the blood circulation was recovered, MCAO/R was induced. Regional CBF was monitored in all stroke animals by LSCI (PeriScan PSI System; PERIMED, Stockholm, Sweden) to confirm a successful occlusion. […]

[1] = tested on: primary cortical neurons and primary microglia; test: Primary neuron and microglia co-culture, OGD/R, ELISA of proinflammatory factors; type: cell-based, mouse
Description: Histological analysis. Organs such as heart, liver, kidney, and brain were excised and fixed in 10% formaldehyde for histological analysis. Their organs were collected and fixed with 4% PFA for 12-18 h, followed by dehydrating using an automatic dehydrator (Leica ASP-300S, Germany) and embedding in paraffin. Then, each sample was coronally cut (4 µm) using a rotatory microtome (Leica RM2245, Germany). The […]
Primary culture of neuron and microglia. Primary cortical neurons (1.0 × 10^5 cells per well in poly-L-lysine-coated 24-well plate) were obtained from fetal C57BL/6 mice of embryonic day 16–17.5, as previously reported1. After careful removal of meninges, cortical tissues were digested in dulbecco's modified eagle medium (DMEM, Gibco) containing 0.05% trypsin (Gibco) at 37 °C for 20 min. DMEM containing 10% FBS (Gibco) was then added to terminate the digestion. The mixture was homogenized by pipetting 120 times and was subsequently filtered with a 100-μm cell strainer (Biologix) and centrifuged at 1000 rpm for 5 min. Then, the cells were collected and resuspended by DMEM supplemented with 10% FBS (Gibco) and penicillin-streptomycin (Gibco).
The suspension was seeded into 24-well plates (10^5 cells/ml), and 4 h later, the medium was changed with Neurobasal medium (Gibco) containing 1% […] and 2% B27 supplement. […]

HT22 cells (OGD/R) = test: Seahorse extracellular acidification rate (ECAR); type: cell-based, mouse; settings: dose-dependent
Description: HT22 cells were counted and plated at 8000 cells per well in a Seahorse XF96 Cell Culture Microplate for all experiments (Agilent). They were then treated with VK (0.0735 or 0.735 μM) for 24 h. […] Next, HT22 cells were washed after 24 h of incubation and were incubated in a 0% CO2 chamber at 37 °C for 1 h, before being placed into a Seahorse XFe96 Analyzer (Agilent). In OCR experiment, HT22 cells were treated, with 2 μM of oligomycin, 5 μM of FCCP, and 1 μM of rotenone and antimycin, respectively; to assess ECAR, they were treated with 1 μM of rotenone and antimycin and 50 mM of 2-DG. All OCR and ECAR data were normalized to cell number per well using WAVE (Agilent).

mice = test: Coagulation function (PT, APTT, TT, FIB) in acute toxicity test; type: in vivo, mouse; settings: VK 1.5-384 mg/kg single i.p., after 14th day
Description: Platelet aggregation function test. Venous blood from (normal healthy rabbits) was collected in 3 mL sodium citrate anticoagulation vacuum plastic tubes. The collected venous blood was centrifuged for 10 min at 100 × g at 4℃ to obtain the upper plasma, and the platelet rich plasma (PRP) was prepared, centrifuged again for 10 min at 2000 × g at 4°C to draw the upper plasma, the platelet poor plasma (PPP) was prepared and […] to a platelet concentration of 3×10^8 cells/ml was counted. The adjusted PRP was placed into a four-channel platelet aggregation instrument (Agg RAM, Helena Laboratories, USA) to determine the 5 min maximum platelet aggregation rate with adenosine diphosphate (ADP), arachidonic acid (AA), thrombin, collagen (COL) , and platelet-activating factor (PAF) or saline as inducers (at a final […]
Acute toxicity test. Systemic acute toxicity test by peritoneal injection was performed according to the guideline provided by Center for Drug Evaluation and Research. In addition to the normal group, male mice were randomly divided into the treated groups received a single dose of 1.5 mg/kg, 6 mg/kg, 24 mg/kg, 96 mg/kg and 384 body weight of VK. […]
The obtained plasma was analyzed using an automatic coagulation apparatus (CA1500). […]

[2] = tested on: neurons in brain of MCAO/R mice; test: NeuN immunohistochemistry; type: in vivo, mouse

Substance: Gly-Arg-Pro-Hyp-Gly-Phe-Ser-Pro-Phe-Arg-Ile-Asp [VK, Vespakinin-M]
- Death rate (mortality) of MCAO mice (MCAO mice; VK 150 μg/kg, 48 MCAO animals): 25%
- Death rate (mortality) of MCAO mice (MCAO mice; VK 300 μg/kg, 64 MCAO animals): 18.75%
- protection of neurons in co-culture with microglia, proinflammatory cytokines [1]: protects neurons
- glycolysis (extracellular acidification rate) in neurons (HT22 cells (OGD/R)): decreased glycolysis
- four coagulation (PT, APTT, TT, FIB) (mice): No obvious change
- number of NeuN-positive cells [2]: greater than that in the vehicle-treated group
